Data from US5607966A, “Esters and amides of non-steroidal anti-inflammatory carboxylic acids which may be used as anti-oxidants, 5-lipoxygenase inhibitors and non-steroidal anti-inflammatory prodrugs” (Alcon Laboratories, Inc., priority 1994, dated 1997).
Values belong to the compound of their own block, whether it stands above or below them.

Columns and labels:
[1] = tested on: endotoxin-induced uveitis in female Lewis rats (neutrophil influx into ocular tissue); assay: endotoxin-induced uveitis model, neutrophil influx (MPO activity) into the eye after topical administration; assay type: in vivo, rat (female Lewis); conditions: for % Inhibition of Influx: topical 5 μl to each eye, 24 hours post endotoxin; for inhibition of neutrophil influx into the rat eye (in words): endotoxin induced uveitis, following topical administration
Method: The topical ophthalmic activity of representative compounds of the present invention, as compared with dexamethasone, is shown in Table 5 below. The compounds were evaluated in an endotoxin-induced uveitis model. This subacute model of ocular inflammation is characterized by the infiltration of neutrophils into the ocular tissue following administration of an endotoxin.
Ocular inflammation in female Lewis rats was initiated by hindpaw injection of 0.1 milliliters [ml] sterile saline (0.9% NaCl, weight:volume [w:v]) containing […] bacterial endotoxin (LPS; Escherichia coli 055:B5). Test compound or vehicle (carbopol/maxidex), 5 μl, was administered topically to each eye of the experimental animal 20 and 24 hours prior to endotoxin injection, immediately before endotoxin injection, and 4 and 20 hours after endotoxin injection. Twenty-four hours post endotoxin injection, animals were sacrificed by CO2 inhalation, and total ocular polymorphonuclear neutrophil (PMN) content was assessed indirectly by determination of myleoperoxide activity (MPO).
Ocular tissues were prepared for the quantification of neutrophil content as follows: Eyes were homogenized in 2.5 ml of ice-cold 50 mM phosphate/10mM N-ethylmaleimide buffer. The Brinkman homogenation probe was rinsed three (3) times with 2.5 ml of the same buffer and the probe washings were combined with the initial tissue homogenate. The homogenate was centrifuged for 30 minutes at 12,000×gravitational constant [g] at 4° C. The supernatant was discarded and the proteinaceous pellet was solubilized on 0.5 ml of ice-cold 0.5% hexadecyltrimethyl ammonium bromide (HTABr)/50 mM phosphate buffer (pH 6.0). The detergent-treated pellet homogenate was centrifuged at 4° C. for 30 minutes at 12,000×g and the supernatant collected and assayed for MPO activity in a buffer containing 50 mM phosphate/250 mM HTABr/250 μM hydrogen peroxide and 1.5 mM o-dianisidine (pH 6.0). o-Dianisidine oxidation was monitored spectrophotometrically at a wavelength of 460 nanometers [nm].

5-lipoxygenase = target: T1, 5-lipoxygenase (Oryctolagus cuniculus, UniProt G1SNX0); assay: 5-lipoxygenase inhibition (5-HETE and LTB4 formation) in A23187-stimulated rabbit neutrophils; assay type: cell-based, rabbit (New Zealand Albino); conditions: A23187 5.0 μM, arachidonic acid 52 μM, 3 minutes at 37° C.
T1 construct: neutrophils isolated from rabbit peripheral blood; endogenous in cells; host or cells: neutrophils from peripheral blood of New Zealand Albino rabbits
T1 sequence (G1SNX0 1-674): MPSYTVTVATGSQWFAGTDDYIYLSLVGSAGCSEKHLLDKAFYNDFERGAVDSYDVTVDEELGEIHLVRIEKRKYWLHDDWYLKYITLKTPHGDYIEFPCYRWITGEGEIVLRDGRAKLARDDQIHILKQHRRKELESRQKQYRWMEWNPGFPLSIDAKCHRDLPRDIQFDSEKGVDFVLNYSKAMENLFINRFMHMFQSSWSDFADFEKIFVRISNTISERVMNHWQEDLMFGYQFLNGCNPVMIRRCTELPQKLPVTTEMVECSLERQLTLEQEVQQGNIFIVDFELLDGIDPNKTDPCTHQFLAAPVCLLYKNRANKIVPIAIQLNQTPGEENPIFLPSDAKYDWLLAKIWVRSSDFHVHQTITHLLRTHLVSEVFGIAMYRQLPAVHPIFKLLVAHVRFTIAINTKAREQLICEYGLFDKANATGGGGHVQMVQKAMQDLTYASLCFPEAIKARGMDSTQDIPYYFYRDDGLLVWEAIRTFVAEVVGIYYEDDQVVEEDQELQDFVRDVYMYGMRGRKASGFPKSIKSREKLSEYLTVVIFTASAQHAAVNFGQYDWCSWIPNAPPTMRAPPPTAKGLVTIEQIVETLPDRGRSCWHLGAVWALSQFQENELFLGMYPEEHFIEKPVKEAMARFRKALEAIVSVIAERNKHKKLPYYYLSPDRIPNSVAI
Method: The 5-lipoxygenase inhibitor activity was determined by measuring the inhibition of 5-HETE and LTB4 formation. The ability of a compound to suppress 5-HETE and LTB4 formation was investigated in calcium ionophore (A23187)-stimulated neutrophils isolated from rabbit peripheral blood. Neutrophils were isolated by standard procedures. Briefly, heparinized/calcium chelated blood was obtained from New Zealand Albino (NZA) rabbits by heart puncture. Red cells were removed at 4° C. by dextran sedimentation,as described in Blood, volume 11, 436 (1956). White cells, contained in the supernatant fraction, were sedimented by centrifugation and contaminating red cells removed by hypotonic lysis. The white cell pellet obtained, following red cell lysis and centrifugation, was resuspended in Dulbecco's PBS (Ca^2+ /Mg^2+ -free) and layered onto a 60% Histopaque-1083®/40% Histopaque-1119® cushion (Sigma Chemical, St. Louis, Mo., U.S.A.). The Histopaque® cushion was then centrifuged, and the resulting neutrophil pellet was washed and resuspended in 1/25 of the original blood volume. Aliquots of the cell suspension were pretreated for 5 minutes at 37° C. with carrier (DMSO) or test article dissolved in DMSO. CaCl2 was immediately added to the cell suspension and cells stimulated by addition of 5 microliters [μl] of a mixture containing [1-^14 C]-arachidonic acid and A23187 in DMSO. […]

bovine retinal pieces = assay: inhibition of lipid peroxide formation (TBARS) in bovine retinal pieces after hypoxia/reoxygenation; assay type: cell-based; conditions: hypoxia 1 hour, reoxygenated for 1 hour, agent added after 50 minutes of hypoxia
Method: The cytoprotective effects of the compounds were measured using bovine retinal pieces. Retinal tissues were incubated in hypoxic media for 1 hour. After 50 minutes of hypoxia, test agents were added to the media to allow 10 minutes for the drug to diffuse into the tissue prior to reoxygenation. The vehicle by itself, was added to the non-drug group. Following the incubation period, tissue was reoxygenated for 1 hour. Lipid peroxidation was assessed by the formation of thiobarbituric acid reacting substances (TBARS). The tissues were homogenized and added to the trichloroacetic acid-thiobarbituric acid reagent and heated in the presence of BHT. The homogenate was filtered and the absorbance of the supernant was measured spectrophotometrically. A double derivative technique was used to calculate the concentration of TBARS present in each sample. Quantitation was based on a molar extinction coefficient of 1.56×10^5.

[2] = phospholipid oxidation assay (conjugate diene formation in liposomes, Fe+3/EDTA and ascorbate); assay type: biochemical; conditions: Fe+3/EDTA (167 μM) and ascorbate (167 μM), one hour
Method: Antioxidant activity was measured using a phospholipid oxidation assay. Liposomes were formed from dilineoleolylphosphocholine and the test compound. Free radical damage was induced by exposure to Fe^+3 /EDTA (167 micromolar [μM]) and ascorbate (167 μM). Oxidation was terminated after one hour by freezing in liquid nitrogen. Lyophilized samples were then dissolved in methanol or water. Oxidation was measured by conjugate diene formation, monitored using UV spectroscopy as described in Biochimica et Biophyica Acta, volume 1081, 181-187, (1991). The IC50 was calculated using the following non-linear regression algorithm: Y=A/[1+(B/X)^c ], wherein A=maximum, B=IC^50 and c=cooperativity or relative broadness of the curves. The minimum was assumed to be zero.

Compound: Vitamin E [reference compound]
IC50 [2]: 4420 nM
IC50 (bovine retinal pieces): 5000 nM

Compound: COc1ccc2cc(C(C)C(=O)OCC3(C)Cc4c(C)c(O)c(C)c(C)c4O3)ccc2c1 (stereo not drawn) [Compound E, 2-(5-hydroxy-2,4,6,7-tetramethyl-2,3-dihydro-benzo[1,2-b]furan-2-yl)methyl2-(6-methoxy-2-naphthyl)propionate]
IC50 (bovine retinal pieces; Bos taurus): 10 nM

Compound: C[C@@H]1C[C@H]2[C@@H]3CCC4=CC(=O)C=C[C@]4(C)[C@@]3(F)[C@@H](O)C[C@]2(C)[C@@]1(O)C(=O)CO [Dexamethasone, reference compound]
% Inhibition of Influx ([1]; concentration 0.1%): 93%

Second part, led by results:

IC50 (5-lipoxygenase): 4000 nM
IC50 (bovine retinal pieces; Bos taurus): 150 nM
Compound: COc1ccc2cc(C(C)C(=O)N(C)CC(O)c3ccc(O)c(O)c3)ccc2c1 (stereo not drawn) [Compound A, N-(2-(3,4-dihydroxyphenyl)-2-hydroxyethyl)-N-methyl 2-(6-methoxy-2-naphthyl)propionamide]
% Inhibition of Influx ([1]; concentration 0.1%): 40%
inhibition of neutrophil influx into the rat eye (in words) [1]: significantly inhibited neutrophil influx

IC50 [2]: 1160 nM
Compound: COc1ccc2cc(C(C)C(=O)OCC3(C)CCc4c(C)c(O)c(C)c(C)c4O3)ccc2c1 (stereo not drawn) [Compound B, 2-(6-hydroxy-2,5,7,8-tetramethyl-3,4-dihydro-2H-benzo[1,2-b]pyran-2-yl)methyl 2-(6-methoxy-2-naphthyl)propionate]

IC50 [2]: 2550 nM
Compound: COc1ccc2cc(C(C)C(=O)OCCC3(C)Cc4c(C)c(O)c(C)c(C)c4O3)ccc2c1 (stereo not drawn) [Compound F, 2-(5-hydroxy-2,4,6,7-tetramethyl-2,3-dihydro-benzo[1,2-b]furan-2-yl)ethyl 2-(6-methoxy-2-naphthyl)propionate]

IC50 [2]: 2230 nM
IC50 (5-lipoxygenase): 1000 nM
IC50 (bovine retinal pieces; Bos taurus): 6 nM
Compound: COc1ccc2cc(C(C)C(=O)OCCC3(C)CCc4c(C)c(O)c(C)c(C)c4O3)ccc2c1 (stereo not drawn) [Compound D, 2-(6-hydroxy-2,5,7,8-tetramethyl-3,4-dihydro-2H-benzo[1,2-b]pyran-2yl)ethyl 2-(6-methoxy-2-naphthyl)propionate]
% Inhibition of Influx ([1]; concentration 1.0%): 40%
inhibition of neutrophil influx into the rat eye (in words) [1]: significantly inhibited neutrophil influx
